These results are taken from patent US20090117200A1, “Fungicide Composition Comprising a Phosphorous Acid Derivative, a Mandelamide Type Compound and a Further Fungicide Compound” (priority 2005, published 2009).

The subject of assay [1] is Plasmopara viticola. The assay can be described thus: Example 4: preventive 72 h application on vine downy mildew, phosphorous acid / mandipropamid / mefenoxam, TAMMES analysis. The class given is in vivo. How it is done:
(§1) Vine plants (variety Cabernet Sauvignon) were grown in a sandy soil in plastic pots with a single plant per pot.
(§2) Four days before treatment, phosphorous acid was applied at 1,500 g a.i./ha on plants planned to be treated later with phosphorous acid based product alone or in mixture.
(§3) A three days interval separated treatment and inoculation. Three days after the treatment, each plant was inoculated by spraying an aqueous suspension of sporangia of Plasmopara viticola obtained from infected leaves and sensitive to all the tested compounds. The concentration of sporangia was about 100,000 units per ml.
(§4) After contamination the plants were incubated for 7 days at 22° C. in a saturated atmosphere. Seven days after contamination, symptoms were evaluated in terms of the extent of the lower surface of the leaves infected, in comparison with untreated (UTC) but contamined plants.
(§5) The efficacy of the treatment was calculated using the Abbott formula:
(§6) efficacy=(untreated−treated/untreated)×100
(§7) The concentrations of the fungicide active substances alone or in mixture giving % efficacy for each component were determined based on the sigmoid curve dose/response model with their confidence intervals. The analysis of the results was made according to the TAMMES model (Isoboles, a graphic representation of synergism in pesticides, Neth. J. Plant Path. 70 (1964): 73-80).

Assay [2] relates to Plasmopara viticola. The assay can be described thus: Example 3: preventive 72 h application on vine downy mildew, phosphorous acid / mandipropamid / folpet, TAMMES analysis. It is filed as in vivo. As for the experimental part:
as §1
The following ratio was tested: phosphorous acid (A)/mandipropamid (B)/folpet (C) respectively: 1,500 g a.i./ha+75 g a.i./ha+750 g a.i./ha (ratio 20/1/10).
The dose range tested for phosphorous acid equivalent (329 g/kg) was: 3,000 g a.i./ha, 1,500 g a.i./ha, 1,000 g a.i./ha, 750 g a.i./ha, 500 g a.i./ha, 250 g a.i./ha, 80 g a.i./ha, 40 g a.i./ha, 20 g a.i./ha, 10 g a.i./ha, 2 g a.i./ha and 0.2 g a.i./ha.
The dose range for mandipropamid+folpet was: 75+750 g a.i./ha, 4+40 g a.i./ha, 2+20 g a.i./ha, 1+10 g a.i./ha, 0.5+5 g a.i./ha, 0.1+1 g a.i./ha and 0.01+0.1 g a.i./ha.
For the ternary mixture phosphorous acid equivalent+mandipropamid+folpet, the dose range studied was: 1,500+75+750 g a.i./ha, 80+4+40 g a.i./ha, 40+2+20 g a.i./ha, 20+1+10 g a.i./ha, 10+0.5+5 g a.i./ha, 2+0.1+1 g a.i./ha and 0.2+0.01+0.1 g a.i./ha.
as §2, §3, §4, §5, §6, §7

Where [3] appears, read: sum of the components, or dose of the single compound, vine, preventive 72 h.

For the compound `OP(O)O` [phosphorous acid], the ED70 with Plasmopara viticola [1] (Table 2 of Example 4: practical 70% of disease control observed) was 650 g a.i./ha; with Plasmopara viticola [2] (Table 2 of Example 3: calculated according to efficacy observed, 70% of disease control), 6.2 g a.i./ha. Moreover, the ED90 is 1,500 g a.i./ha in the assay with Plasmopara viticola [1] (Table 2 of Example 4: practical 90% of disease control observed) and 145 g a.i./ha in the assay with Plasmopara viticola [2] (Table 2 of Example 3: calculated according to efficacy observed, 90% of disease control). Further, in the assay on Plasmopara viticola [2] (setting [3]), the “Practical dose for 70% efficacy, total” value was 6.2 g a.i./ha. Further, in the assay on Plasmopara viticola [2] (setting [3]), the “Practical dose for 90% efficacy, total” value came out at 145 g a.i./ha.
